Assay: Cytotoxicity against human HCT116 cells measured after 72 hrs by MTT assay
Assay type: functional, cell-based
Details: HCT-116, 72 h

Compound	IC50
C=C1/C=C(\C)[C@](C)(O)C[C@H](O)CC(=O)[C@H](O)[C@@H](O)[C@H](C)C[C@H](C)OC(=O)/C(C)=C/CC/C=C/C(O)C(O)C[C@H](C)C1 (some centres not stated)	9.8 µM
C=C1/C=C(\C)[C@@H](C)[C@@H](O)CC(=O)[C@@H](C)CC(=O)C[C@H]2CC[C@@H](O2)[C@@H](/C=C/C=C(\C)[C@@H](O)C(=C)CCC)OC(=O)C[C@@H]2O[C@H](C[C@H]2C)[C@H](O)C1	10.3 µM

— ChEMBL document CHEMBL3861978, “Dinoflagellate-Related Amphidinolides from the Brazilian Octocoral Stragulum bicolor” (J Nat Prod, 2016)
